Measured values as given in patent US7141569B2, “Antiviral pyrazolopyridine compounds” (SmithKline Beecham Corporation, priority 2001, dated 2006).
pIC50: −log10 of the molar value.

Tested on: HSV-1
Experiment: HSV-1 infection of Vero 76 cells, viral DNA detected by hybridization capture (chemiluminescence)
Format: cell-based
Details: Human alphaherpesvirus 1; HSV-1 in Vero 76 cells, MOI=0.001, compounds incubated 40–48 hours at 37° C.
Description: Vero 76 cells were maintained in MEM with Earle's salts, L-glutamine, 8% FBS (Hyclone, A-1111-L) and 100 units/mL Penicillin-100 μg/mL Streptomycin. For assay conditions, FBS was reduced to 2%. Cells are seeded into 96-well tissue culture plates at a density of 5×10^4 cells/well after being incubated for 45 min at 37° C. in the presence of HSV-1 or HSV-2 (MOI=0.001). Test compounds are added to the wells and the plates are incubated at 37° C. for 40–48 hours. Cell lysates are prepared as follows: media was removed and replaced with 150 μL/well 0.2 N NaOH with 1% Igepal CA 630 or NP-40. Plates were incubated up to 14 days at room temperature in a humidified chamber to prevent evaporation.
For the detection probe, a gel-purified, digoxigenin-labeled, 710-bp PCR fragment of the HSV UL-15 sequence was utilized. PCR conditions included 0.5 μM primers, 180 μM dTTP, 20 μM dUTP-digoxigenin (Boehringer Mannheim 1558706), 200 μM each of dATP, dCTP, and dGTP, 1×PCR Buffer II (Perkin Elmer), 2.5 mM MgCl2, 0.025 units/μL of AmpliTaq Gold polymerase (Perkin Elmer), and 5 ng of gel-purified HSV DNA per 100 μL Extension conditions were 10 min at 95° C., followed by 30 cycles of 95° C. for 1 min, 55° C. for 30 sec. and 72° C. for 2 min. The amplification was completed with a 10-min incubation at 72° C. Primers were selected to amplify a 728 bp probe spanning a section of the HSV1 UL15 open reading frame (nucleotides 249–977). Single-stranded transcripts were purified with Promega M13 Wizard kits. The final product was mixed 1:1 with a mixture of 6 M GuSCN, 100 mM EDTA and 200 μg/mL herring sperm DNA and stored at 4° C.
The capture DNA plasmid (HSV UL13 region in pUC) was linearized by cutting with Xba I, denatured for 15 min at 95° C. and diluted immediately into Reacti-Bind DNA Coating Solution (Pierce, 17250, diluted 1:1 with TE buffer, pH 8) at 1 ng/μL 75 μL/well were added to Corning (#3922 or 9690) white 96-well plates and incubated at room temperature for at least 4 hrs before washing twice with 300 μL/well 0.2×SSC/0.05% Tween-20 (SSC/T buffer). The plates were then incubated overnight at room temperature with 150 μL/well 0.2 N NaOH, 1% IGEPAL and 10 μg/mL herring sperm DNA.
Twenty-seven (27) μL of lysate was combined with 45 μL of hybridization solution (final concentration: 3M GuSCN, 50 mM EDTA, 100 μg/ml salmon sperm DNA, 5×Denhardt's solution, 0.25×APE, and 5 ng of the digoxigenin-labeled detection probe). APE is 1.5 M NH4-acetate, 0.15 M NH4H2 phosphate, and 5 mM EDTA adjusted to pH 6.0 Mineral oil (50 μL) was added to prevent evaporation. The hybridization plates were incubated at 95° C. for 10 minutes to denature the DNA, then incubated at 42° C. overnight. The wells were washed 6× with 300 μl/well SSC/T buffer then incubated with 75 μL/well anti-digoxigenin-HRP-conjugated antibody (Boehringer Mannheim 1207733, 1:5000 in TE) for 30 min at room temperature. The wells were washed 6× with 300 μL/well with PBS/0.05% Tween-20 before 75 μL/well SuperSignal LBA substrate (Pierce) was added. The plates were incubated at room temperature for 30 minutes and chemiluminescence was measured in a Wallac Victor reader.

| pIC50 | SMILES |
| --- | --- |
| 5.72 | Fc1ccc(-c2nn3ccc(NC4CCCC4)c(Cl)c3c2-c2ccnc(NC3CCCC3)n2)cc1 [Example 14, 4-Chloro-N-cyclopentyl-3-[2-(cyclopentylamino)pyrimidin-4-yl]-2-(4-fluorophenyl)pyrazolo[1,5-α]pyridin-5-amine] |
| 6.62 | Nc1ccc2c(-c3ccnc(NC4CCCC4)n3)c(-c3ccc(F)cc3)nn2c1 [Example 5, 3-[2-(cyclopentylamino)-4-pyrimidinyl]-2-(4-fluorophenyl)pyrazolo[1,5-α]pyridin-6-amine] |
| 6.70 | COc1ccc(-c2nn3ccc(NC4CCCC4)cc3c2-c2ccnc(NC3CCCC3)n2)cc1 [Example 10, N-Cyclopentyl-3-[2-(cyclopentylamino)-4-pyrimidinyl]-2-(4-methoxyphenyl)-pyrazolo[1,5-α]pyridin-5-amine] |
| 6.00 | COCCNc1ccn2nc(-c3ccc(F)cc3)c(-c3ccnc(NC4CCCC4)n3)c2c1 [Example 8, 3-[2-(Cyclopentylamino)-4-pyrimidinyl]-2-(4-fluorophenyl)-N-(2-methoxyethyl)pyrazolo[1,5-α]pyridin-5-amine] |
| 5.70 | CS(=O)(=O)Nc1ccn2nc(-c3ccc(F)cc3)c(-c3ccnc(NC4CCCC4)n3)c2c1 [Example 4, N-[3-[2-(Cyclopentylamino)-4-pyrimidinyl]-2-(4-fluorophenyl)pyrazolo[1,5-α]pyridin-5-yl]methanesulfonamide] |
| 6.30 | Fc1ccc(-c2nn3ccc(NC4CCCC4)cc3c2-c2ccnc(NC3CCCC3)n2)cc1 [Example 2, N-Cyclopentyl-3-[2-(cyclopentylamino)-4-pyrimidinyl]-2-(4-fluorophenyl)pyrazolo[1,5-α]pyridin-5-amine] |
| 5.52 | Fc1ccc(-c2nn3ccc(NC4CCCC4)c(Br)c3c2-c2ccnc(NC3CCCC3)n2)cc1 [Example 13, 4Bromo-N-cyclopentyl-3-[2-(cyclopentylamino)pyrimidin-4-yl]-2-(4-fluorophenyl)pyrazolo[1,5-α]pyridin-5-amine] |
| 5.46 | COc1ccc(-c2nn3ccc(NC4CCCC4)c(Br)c3c2-c2ccnc(NC3CCCC3)n2)cc1 [Example 15, 4-Bromo-N-cyclopentyl-3-[2-(cyclopentylamino)pyrimidin-4-yl]-2-(4-methoxyphenyl)pyrazolo[1,5-α]pyridin-5-amine] |
| 5.92 | Oc1ccc(-c2nn3ccc(NC4CCCC4)cc3c2-c2ccnc(NC3CCCC3)n2)cc1 [Example 18, 4-{5-(Cyclopentylamino)-3-[2-(cyclopentylamino)-4-pyrimidinyl]pyrazolo[1,5-α]pyridin-2-yl}phenol] |
| 5.30 | Nc1ccn2nc(-c3ccc(F)cc3)c(-c3ccnc(NC4CCCC4)n3)c2c1 [Example 3, 3-[2-(Cyclopentylamino)-4-pyrimidinyl]2-(4-fluorophenyl)pyrazolo[1,5-α]pyridin-5-amine] |
| 5.60 | CCCCNc1cc(-c2c(-c3ccc(F)cc3)nn3cccc(NCCCC)c23)ccn1 [Example 17, N-Butyl-3-[2-(butylamino)pyridin-4-yl]-2-(4-fluorophenyl)pyrazolo[1,5-α]pyridin-4-amine] |
| 6.00 | Fc1ccc(-c2nn3cc(NC4CCCC4)ccc3c2-c2ccnc(NC3CCCC3)n2)cc1 [Example 6, N-Cyclopentyl-3-[2-(cyclopentylamino)-4-pyrimidinyl]-2-(4-fluorophenyl)pyrazolo[1,5-α]pyridin-6-amine] |
| 6.10 | COc1ccc(-c2nn3ccc(NC(C)C)cc3c2-c2ccnc(NC3CCCC3)n2)cc1 [Example 12, 3-[2-(Cyclopentylamino)-4-pyrimidinyl]-N-isopropyl-2-(4-methoxyphenyl)pyrazolo[1,5-α]pyridin-5-amine] |
| 5.92 | CC(C)Nc1ccc2c(-c3ccnc(NC4CCCC4)n3)c(-c3ccc(F)cc3)nn2c1 [Example 7, 3-[2-(Cyclopentylamino)-4-pyrimidinyl]-2-(4-fluorophenyl)-N-isopropylpyrazolo[1,5-α]pyridin-6-amine] |
| 5.54 | CC(C)Nc1ccn2nc(-c3ccc(F)cc3)c(-c3ccnc(NC4CCCC4)n3)c2c1 [Example 9, 3-[2-(Cyclopentylamino)-4-pyrimidinyl]-2-(4-fluorophenyl)-N-isopropylpyrazolo[1,5-α]pyridin-5-amine] |
| 6.52 | c1cc(-c2c(-c3ccc(OCC4CC4)cc3)nn3ccc(NC4CCCC4)cc23)nc(NC2CCCC2)n1 [Example 20, N-Cyclopentyl-3-[2-(cyclopentylamino)-4-pyrimidinyl]-2-[4-(cyclopropylmethoxy)phenyl]pyrazolo[1,5-α]pyridin-5-amine] |
| 5.55 | COc1ccc(-c2nn3ccc(NC4CCCC4)c(Cl)c3c2-c2ccnc(NC3CCCC3)n2)cc1 [Example 16, 4-Chloro-N-cyclopentyl-3-[2-(cyclopentylamino)pyrimidin-4-yl]-2-(4-methoxyphenyl)pyrazolo[1,5-α]pyridin-5-amine] |

| SMILES | pIC50 |
| --- | --- |
| CC(C)COc1ccc(-c2nn3ccc(NC4CCCC4)cc3c2-c2ccnc(NC3CCCC3)n2)cc1 [Example 19, N-Cyclopentyl-3-[2-(cyclopentylamino)-4-pyrimidinyl]-2-(4-isobutoxyphenyl)pyrazolo[1,5-α]pyridin-5-amine] | 6.30 |
